1 compound from PMC6321601 (Molecules, 2018) can be followed below.

Usually IC50 stands for the concentration needed to halve the response being measured. Read a low IC50 as greater potency.

One data set relates to Bax. The data set is described as follows: Western blot assay, Bax. As to conditions: HepG-2, 24 h. It counts as cell-based, human. As to the method: (§1) HepG-2 cells were treated with compound 10b for 24 h, and the cell lysates were collected. Then, the total protein was separated by SDS-PAGE and transferred to PVDF membranes. The membranes were incubated with primary antibodies (1:1000) at 4 °C overnight. After being washed with PBST (PBS + 0.5% Tween 20) 5 times, the membranes were incubated with HRP-conjugated secondary antibodies (1:5000 dilution) for 2 h at room temperature. The membranes were then washed with PBST 5 times and the protein blots were detected by ECL chemiluminescence.
For orientation: In western blotting, separated proteins are transferred to a membrane and probed.

In a further data set the test system is STAT3. The data set can be described thus: Western blot assay, STAT3. It counts as cell-based, human. The note with it: HepG-2, 24 h, different concentrations. As for the experimental part: as §1
The next data set deals with P-STAT3. The data set can be described thus: Western blot assay, P-STAT3. It counts as cell-based, human. The note with it: HepG-2, 24 h, dose-dependent. As to the method: as §1
The next data set relates to Bim. The data set is described as follows: Western blot assay, Bim. As to conditions: HepG-2, 24 h. It counts as cell-based, human. As for the experimental part:
as §1

Data set [1] has as its system HepG-2 human hepatocellular carcinoma cells. The data set is described as follows: MTT assay, proliferation of HepG-2 cells. Format: cell-based. The note with it: Homo sapiens, HepG2, 72 h incubation, mean of three independent experiments. Summed up:
(§2)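 HepG-2 and normal L-O2 liver cells in DMEM with 10% FBS were seeded and, after 12 h, exposed to graded compound concentrations for 72 h at 37 °C. Viability was read by MTT (4 h, formazan dissolved in DMSO, OD 570 nm), and IC50 values were calculated from these readings.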
For orientation: Formazan colour is commonly taken as a measure of viable cells.

Data set [2] relates to L-O2 human normal liver cells. The data set is described as follows: MTT assay, toxicity against L-O2 normal cells. It counts as cell-based. As to conditions: Homo sapiens, 72 h incubation, mean of three independent experiments. Put shortly:
as §2

The subject of the next data set is HepG-2 cells. The data set is described as follows: Cell apoptosis assay, Annexin-V/PI flow cytometry. It counts as cell-based, human. As to conditions: HepG-2, 48 h, 0, 1 and 2 µM. As to the method:
HepG-2 cells were seeded into a 24-well plate with 5 × 10^4/well/1 mL. After 12 h, cells were treated with compound 10b at different concentrations for 48 h. The cells were collected, washed with cold PBS, and stained with Annexin-V/PI according to the manufacturer’s instructions. Then, the cells were analyzed with flow cytometry.

For another data set, the system named is Bcl-2. The data set is described as follows: Western blot assay, Bcl-2. Format: cell-based, human. The note with it: HepG-2, 24 h. As for the experimental part:
as §1

The subject of another data set is Balb/C mice. The data set can be described thus: In vivo acute toxicity assay. The note with it: intravenous injection; for percentage of death: three mice. As for the experimental part:
To evaluate the toxicity of compound 10b, an acute toxicity assay was performed using Balb/C mice.
Five-week-old Balb/C mice were purchased from the Chinese Academy of Sciences and maintained under specific pathogen free (SPF) conditions. […] The control group mice were treated with vehicle buffer intravenously. […] The compound 10b group mice were treated with compound 10b at doses of 2 mg/kg, 5 mg/kg, 10 mg/kg, 20 mg/kg, and 50 mg/kg respectively (three mice each dose). The clinical symptoms, deaths, and body weight were observed and recorded.

The next data set has as its system caspase 3. The data set can be described thus: Western blot assay, caspase 3. Format: cell-based, human. As to conditions: HepG-2, 24 h. As for the experimental part: as §1

With `CC(=O)OC(C)(C)/C=C/C(=O)[C@](C)(O)C1[C@H](OC(=O)CCC(=O)OCCCOc2no[n+]([O-])c2S(=O)(=O)c2ccccc2)C[C@@]2(C)C3CC=C4C(CC(O)C(=O)C4(C)C)[C@]3(C)C(=O)C[C@]12C` (stereo partly drawn) [Compound 10b, 4-(3-((4-(((9R,13R,14S,16R)-17-((R,E)-6-Acetoxy-2-hydroxy-6-methyl-3-oxohept-4-en-2-yl)-2-hydroxy-4,4,9,13,14-pentamethyl-3,11-dioxo-2,3,4,7,8,9,10,11,12,13,14,15,16,17-tetradecahydro-1H-cyclopenta[a]phenanthren-16-yl)oxy)-4-oxobutanoyl)oxy)propoxy)-3-(phenylsulfonyl)-1,2,5-oxadiazole 2-oxide], the “expression of Bax” value with Bax was “strongly increased”. In addition, the “total expression of STAT3” value in the data set on STAT3 is “remained little changed”. For the same compound, in the data set on P-STAT3, the “level of P-STAT3” value was “clearly inhibited”. The “expression of Bim” value in the data set with Bim was “strongly increased”. Also, the IC50 in data set [1] was determined as 630 ± 290 nM; in data set [2] it was 2970 ± 230 nM. In addition, the “induction of cell apoptosis” value in the data set with HepG-2 cells is “significantly induced cell apoptosis in a dose-dependent manner”. In the data set with Bcl-2, the “expression of Bcl-2” value is reported as “substantially diminished”. The percentage of death is reported as 0/3 with Balb/C mice (2 mg/kg); 0/3 in the data set with Balb/C mice (5 mg/kg); 0/3 in the data set with Balb/C mice (10 mg/kg); 0/3 with Balb/C mice (20 mg/kg); 1/3 in the data set with Balb/C mice (50 mg/kg). In addition, in the data set on Balb/C mice (different doses (2-50 mg/kg), compared to the vehicle group), the body weight change entry is reported as “did not change”. The “level of caspase 3” value with caspase 3 was “decreased”.
